Data from PubChem BioAssay AID328 (DTP/NCI, 2004).
“And” between values parts separate entries of the source, which are not always exact repeats. Equal values may be shown once. Toxic doses and inconclusive results are not listed.

Test system: BDF1 mice, P388 leukemia ip, median survival T/C
Assay: NCI In Vivo Anticancer Drug Screen. Data for tumor model P388 Leukemia (intraperitoneal) in B6D2F1 (BDF1) mice
Conditions: endpoint: median survival time, higher = longer survival
Summary of the method: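 In tumour-bearing mice, survival after compound treatment is set against the vehicle group and given as a quotient.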

[1] = dose: 100.0 mg/kg/injection, schedule: Q01DX009 (ip), vehicle: saline
[2] = dose: 400.0 mg/kg/injection, schedule: Q01DX009 (ip), vehicle: saline
[3] = dose: 200.0 mg/kg/injection, schedule: Q01DX009 (ip), vehicle: saline
[4] = dose: 100.0 mg/kg/injection, schedule: Q01DX009 (ip), vehicle: Klucel (hydroxypropylcellulose) (HPC)
[5] = dose: 100.0 mg/kg/injection, schedule: Q04DX003 (ip), vehicle: Klucel (hydroxypropylcellulose) (HPC)
[6] = dose: 200.0 mg/kg/injection, schedule: Q04DX003 (ip), vehicle: Klucel (hydroxypropylcellulose) (HPC)
[7] = dose: 400.0 mg/kg/injection, schedule: Q01DX009 (ip), vehicle: Klucel (hydroxypropylcellulose) (HPC)
[8] = dose: 400.0 mg/kg/injection, schedule: Q04DX003 (ip), vehicle: Klucel (hydroxypropylcellulose) (HPC)
[9] = dose: 200.0 mg/kg/injection, schedule: Q01DX009 (ip), vehicle: saline with Tween-80
[10] = dose: 100.0 mg/kg/injection, schedule: Q04DX003 (ip), vehicle: saline
[11] = dose: 50.0 mg/kg/injection, schedule: Q01DX009 (ip), vehicle: saline with Tween-80
[12] = dose: 100.0 mg/kg/injection, schedule: Q01DX009 (ip), vehicle: saline with Tween-80

With `FC(F)(F)C1=N/C(=C2\N=C(C(F)(F)F)N=C2Cl)C(Cl)=N1` the T/C (dose: 0.39 mg/kg/injection, schedule: Q04DX003 (ip), vehicle: saline with Tween-80) was 100 % of control, the T/C (dose: 0.78 mg/kg/injection, schedule: Q04DX003 (ip), vehicle: saline with Tween-80) was 114 % of control and the T/C (dose: 1.56 mg/kg/injection, schedule: Q01DX009 (ip), vehicle: saline with Tween-80) was 104 % of control. For the same molecule, the T/C (dose: 1.56 mg/kg/injection, schedule: Q04DX003 (ip), vehicle: saline with Tween-80) was 100 % of control and 110 % of control, the T/C (dose: 3.12 mg/kg/injection, schedule: Q01DX009 (ip), vehicle: saline with Tween-80) was 116 % of control and the T/C (dose: 3.12 mg/kg/injection, schedule: Q04DX003 (ip), vehicle: saline with Tween-80) was 96 % of control and 100 % of control. For the same molecule, the T/C (dose: 6.25 mg/kg/injection, schedule: Q01DX009 (ip), vehicle: saline with Tween-80) was 116 % of control, the T/C (dose: 6.25 mg/kg/injection, schedule: Q04DX003 (ip), vehicle: saline with Tween-80) was 91 % of control and 100 % of control and the T/C (dose: 12.5 mg/kg/injection, schedule: Q01DX009 (ip), vehicle: saline with Tween-80) was 111 % of control. For the same molecule, the T/C (dose: 12.5 mg/kg/injection, schedule: Q04DX003 (ip), vehicle: saline with Tween-80) was 88 % of control, the T/C (dose: 25.0 mg/kg/injection, schedule: Q01DX009 (ip), vehicle: saline with Tween-80) was 94 % of control and the T/C (dose: 25.0 mg/kg/injection, schedule: Q04DX003 (ip), vehicle: saline with Tween-80) was 88 % of control.

For `O=[N+]([O-])C=C(S)S`, the T/C (dose: 12.5 mg/kg/injection, schedule: Q01DX009 (ip), vehicle: water) was 101 % of control, the T/C (dose: 25.0 mg/kg/injection, schedule: Q01DX009 (ip), vehicle: water) was 124 % of control and the T/C (dose: 50.0 mg/kg/injection, schedule: Q01DX009 (ip), vehicle: water) was 117 % of control. For the same molecule, the T/C (dose: 100.0 mg/kg/injection, schedule: Q01DX009 (ip), vehicle: water) was 108 % of control.

With `CC(CC#N)NC(=O)C1CCC(N)=N1` (stereo unspecified) the T/C [1] was 111 % of control and the T/C [2] was 103 % of control.

In the case of `Fc1ccc(-c2n[nH]c3c2CCCc2ccccc2-3)cc1`, the T/C (dose: 100.0 mg/kg/injection, schedule: Q04DX003 (ip), vehicle: saline with Tween-80) was 114 % of control, the T/C (dose: 200.0 mg/kg/injection, schedule: Q04DX003 (ip), vehicle: saline with Tween-80) was 114 % of control and the T/C (dose: 400.0 mg/kg/injection, schedule: Q04DX003 (ip), vehicle: saline with Tween-80) was 123 % of control.

`NCC1OC(OC2C(CO)OC(OC3C(O)C(N)CC(N)C3OC3OC(CO)C(O)C(O)C3N)C2O)C(N)C(O)C1O` (stereo unspecified) was tested, and the T/C [1] was 104 % of control, the T/C [3] was 106 % of control and the T/C [2] was 97 % of control.

`O=C(O)c1ccc(C(=O)c2ccccc2C(=O)O)cc1` was tested, and the T/C (dose: 100.0 mg/kg/injection, schedule: Q01DX001 (ip), vehicle: Klucel (hydroxypropylcellulose) (HPC)) was 95 % of control, the T/C [4] was 91 % of control and the T/C [5] was 104 % of control. For the same molecule, the T/C (dose: 200.0 mg/kg/injection, schedule: Q01DX001 (ip), vehicle: Klucel (hydroxypropylcellulose) (HPC)) was 100 % of control, the T/C (dose: 200.0 mg/kg/injection, schedule: Q01DX009 (ip), vehicle: Klucel (hydroxypropylcellulose) (HPC)) was 95 % of control and the T/C [6] was 104 % of control. The T/C (dose: 400.0 mg/kg/injection, schedule: Q01DX001 (ip), vehicle: Klucel (hydroxypropylcellulose) (HPC)) was 95 % of control, the T/C [7] was 91 % of control and the T/C [8] was 109 % of control.

`CCOC(=O)C(C)NC(=O)C(C)NC(=O)OCc1ccccc1` (stereo unspecified) was tested, and the T/C (dose: 100.0 mg/kg/injection, schedule: Q01DX009 (ip), vehicle: gum acacia) was 120 % of control, the T/C (dose: 100.0 mg/kg/injection, schedule: Q04DX003 (ip), vehicle: gum acacia) was 95 % of control and the T/C (dose: 200.0 mg/kg/injection, schedule: Q01DX009 (ip), vehicle: gum acacia) was 100 % of control. For the same molecule, the T/C (dose: 200.0 mg/kg/injection, schedule: Q04DX003 (ip), vehicle: gum acacia) was 112 % of control, the T/C (dose: 400.0 mg/kg/injection, schedule: Q01DX009 (ip), vehicle: gum acacia) was 95 % of control and the T/C (dose: 400.0 mg/kg/injection, schedule: Q04DX003 (ip), vehicle: gum acacia) was 87 % of control.

`CC1(C)COCN1COC1CCCCC1` was tested, and the T/C [9] was 90 % of control.

In the case of `CCn1c(O)c(C=N)c(=O)n(CC)c1=O`, the T/C (dose: 25.0 mg/kg/injection, schedule: Q01DX009 (ip), vehicle: saline) was 100 % of control, the T/C (dose: 25.0 mg/kg/injection, schedule: Q04DX003 (ip), vehicle: saline) was 96 % of control and the T/C (dose: 50.0 mg/kg/injection, schedule: Q01DX009 (ip), vehicle: saline) was 104 % of control. The T/C (dose: 50.0 mg/kg/injection, schedule: Q04DX003 (ip), vehicle: saline) was 100 % of control and the T/C [10] was 103 % of control.

In the case of `COc1cc2ccc(CC3NCCc4cc5c(cc43)OCO5)cc2cc1OC` (stereo unspecified), the T/C (dose: 22.0 mg/kg/injection, schedule: Q01DX009 (ip), vehicle: saline with Tween-80) was 105 % of control, the T/C (dose: 33.0 mg/kg/injection, schedule: Q01DX009 (ip), vehicle: saline with Tween-80) was 110 % of control and the T/C (dose: 50.0 mg/kg/injection, schedule: Q01DX009 (ip), vehicle: other) was 100 % of control. The T/C [11] was 115 % of control, the T/C (dose: 75.0 mg/kg/injection, schedule: Q01DX009 (ip), vehicle: saline with Tween-80) was 110 % of control and the T/C (dose: 100.0 mg/kg/injection, schedule: Q01DX009 (ip), vehicle: other) was 100 % of control. The T/C (dose: 100.0 mg/kg/injection, schedule: Q04DX003 (ip), vehicle: other) was 118 % of control and the T/C (dose: 200.0 mg/kg/injection, schedule: Q04DX003 (ip), vehicle: other) was 118 % of control.

For `O=C(O)c1csc(-c2csc(CCNC(=O)C(F)(F)F)n2)n1`, the T/C [11] was 94 % of control, the T/C [12] was 93 % of control and the T/C [9] was 103 % of control.

`CCN1C(=O)CSC1=S` was tested, and the T/C (dose: 62.5 mg/kg/injection, schedule: Q01DX010 (ip), vehicle: saline) was 109 % of control, the T/C (dose: 125.0 mg/kg/injection, schedule: Q01DX010 (ip), vehicle: saline) was 109 % of control and the T/C (dose: 250.0 mg/kg/injection, schedule: Q01DX010 (ip), vehicle: saline) was 90 % of control.

For `CC(=O)Nc1cscc1NC(C)=O`, the T/C [11] was 110 % of control and 123 % of control, the T/C [12] was 119 % of control and 123 % of control and the T/C [9] was 123 % of control.

`O=C(OCC1OC(n2cnc3c(=O)[nH]c(=O)[nH]c32)C(OC(=O)c2ccccc2)C1OC(=O)c1ccccc1)c1ccccc1` (stereo unspecified) was tested, and the T/C (dose: 50.0 mg/kg/injection, schedule: Q01DX010 (ip), vehicle: saline with Tween-80) was 100 % of control, the T/C (dose: 100.0 mg/kg/injection, schedule: Q01DX010 (ip), vehicle: saline with Tween-80) was 90 % of control and the T/C (dose: 200.0 mg/kg/injection, schedule: Q01DX010 (ip), vehicle: saline with Tween-80) was 90 % of control. The T/C (dose: 400.0 mg/kg/injection, schedule: Q01DX010 (ip), vehicle: saline with Tween-80) was 90 % of control.

For `CC(=O)Nc1ccc(N=Nc2ccccc2)cc1F`, the T/C [4] was 120 % of control, the T/C [5] was 104 % of control and the T/C [6] was 108 % of control. For the same molecule, the T/C [7] was 120 % of control and the T/C [8] was 95 % of control.

With `CNNCc1ccc(C(=O)NC(N)=O)cc1` the T/C [10] was 95 % of control, the T/C (dose: 133.0 mg/kg/injection, schedule: Q01DX009 (ip), vehicle: saline) was 111 % of control and the T/C [3] was 100 % of control. The T/C (dose: 200.0 mg/kg/injection, schedule: Q04DX003 (ip), vehicle: saline) was 95 % of control, the T/C [2] was 107 % of control and the T/C (dose: 400.0 mg/kg/injection, schedule: Q04DX003 (ip), vehicle: saline) was 113 % of control.

For `CN=S(=O)(OCC#CCOS(=O)(=NC)c1ccc(C)cc1)c1ccc(C)cc1` (stereo unspecified), the T/C (dose: 50.0 mg/kg/injection, schedule: Q01DX009 (ip), vehicle: saline + alcohol) was 151 % of control, the T/C (dose: 100.0 mg/kg/injection, schedule: Q01DX009 (ip), vehicle: saline + alcohol) was 87 % of control and the T/C [12] was 94 % of control.

In the case of `CCOC(=O)C(N)C[S][Sn]([CH3])([CH3])[Cl]` (stereo unspecified), the T/C (dose: 6.25 mg/kg/injection, schedule: Q01DX009 (ip), vehicle: saline) was 122 % of control and the T/C (dose: 12.5 mg/kg/injection, schedule: Q01DX009 (ip), vehicle: saline) was 124 % of control.

For `COc1ccc(/C=C/c2c[n+]([O-])ccc2[N+](=O)[O-])cc1`, the T/C [11] was 105 % of control, the T/C [12] was 109 % of control and the T/C [9] was 119 % of control.

With `O=c1cc(-c2ccc(OCc3ccccc3)c(-c3c(OCc4ccccc4)cc(OCc4ccccc4)c4c(=O)cc(-c5ccc(OCc6ccccc6)cc5)oc34)c2)oc2cc(OCc3ccccc3)cc(OCc3ccccc3)c12` the T/C (dose: 100.0 mg/kg/injection, schedule: Q01DX001 (ip), vehicle: saline with Tween-80) was 88 % of control.
